System: Phosphorylation of STAT6 in human A549 cells
Assay: Phosphorylated STAT6 (pSTAT6) flow cytometry assay in human A549 cells
Assay type: cell-based
Conditions: listed as I-390, read-out: STAT6 IL4 pSTAT6 assay in A549 cells: Average IC50
Excerpt: Example 3. Phosphorylated STAT6 (pSTAT6) Flow Cytometry Assay in Human A549 Cells
Phosphorylation of STAT6 in human A549 cells was quantitatively measured using flow cytometry technology.

Row | Compound | IC50 [µM]
1 | COc1cc(F)cnc1N1CCN(C(=O)c2cc3c([C@@H]4CCCN4C)cc(C4=CCCN(C(=O)CCn5ccnn5)C4)c(F)c3[nH]2)CC1 (single isomer, unassigned) [Example I-813] | < 0.1

Same assay, conditions: read-out: STAT6 IL4 pSTAT6 assay in A549 cells: Average IC50

Row | Compound | IC50 [µM]
2 | (S)-1-(5-(7-fluoro-2-(4-(5-fluoro-3-methoxypyridin-2-yl)piperazine-1-carbonyl)-4-(1-methylpyrrolidin-3-yl)-1H-indol-6-yl)-3,6-dihydropyridin-1(2H)-yl)-3-(1H-1,2,3-triazol-1-yl)propan-1-one [Example I-811] | < 0.1
3 | COc1cc(F)cnc1N1CCN(C(=O)c2cc3c(-c4c(F)ccc5ccc(C)nc45)cc(C4=CCCN(C(=O)CCn5ccnn5)C4)c(F)c3[nH]2)CC1 [Example I-631] | < 0.1
4 | COc1cc(F)cnc1N1CCN(C(=O)c2cc3c([C@@H]4CCCN4C)cc(C4=CCCN(C(=O)CCn5ccnn5)C4)c(F)c3[nH]2)CC1 (single isomer, unassigned) [Example I-813] | > 100
5 | CC(=O)c1ccccc1-c1cc(C2=CCCN(C(C)=O)C2)c(F)c2[nH]c(C(=O)N(C)C)cc12 [Example I-1097] | > 100
6 | COc1ccccc1-c1cc(C2=CCCN(C(=O)CCn3ccnn3)C2)c(F)c2[nH]c(C(=O)N3CCN(c4c(OC)cccc4OC)CC3)cc12 [Example I-350] | < 0.1
7 | COc1cnccc1-c1cc(C2=CCCN(C(=O)CCn3ccnn3)C2)c(F)c2[nH]c(C(=O)N3CCN(c4ncccc4OC4CC4)CC3)cc12 [Example I-593] | < 0.1
8 | COc1ccccc1-c1cc(C2=CCCN(C(=O)CCn3ccnn3)C2)c(F)c2[nH]c(C(=O)N3CCN(c4cc5cnn(C)c5cc4C)CC3)cc12 [Example I-925] | 0.1 to 1
9 | CCc1nc(C)ccc1-c1cc(C(=O)N2CCN(c3nc(C)c(F)cc3OC)CC2)cc2cc(C3=CCCN(C(=O)CC(=O)O)C3)n(CC3CC3)c12 [Example I-792] | < 0.1
10 | CCCN1CCN(C(=O)c2cc3c(-c4ccccc4OC)cc(C4=CCCN(C(=O)CCn5ccnn5)C4)c(F)c3[nH]2)C[C@@H]1C [Example I-997] | < 0.1
11 | COC(=O)CCC#Cc1cccc2c1CC(C(=O)N1CCC=C(c3ccc4oc(C(=O)N(C)C)cc4c3)C1)N(C=O)C2 (stereo not shown) [Example I-802, Methyl 5-(3-(5-(2-(dimethylcarbamoyl)benzofuran-5-yl)-1,2,3,6-tetrahydropyridine-1-carbonyl)-2-formyl-1,2,3,4-tetrahydroisoquinolin-5-yl)pent-4-ynoate] | 0.1 to 1
12 | COc1ccccc1-c1cc(C2=CCCN(C(=O)CCn3ccnn3)C2)c(F)c2[nH]c(C(=O)N3CCN(c4cc(C)cc5c[nH]nc45)CC3)cc12 [Example I-921] | 0.1 to 1
13 | CCOC(=O)C(=O)N1CCC=C(c2cc3cc(C(=O)N4Cc5cnn(CC)c5C4)cc(-c4ccc(CC)nc4C)c3n2CC2CC2)C1 [Example I-799] | > 100
14 | CCc1ccncc1-c1cc(C2=CCCN(C(=O)CCn3cccn3)C2)c(F)c2[nH]c(C(=O)N3CCN(c4ncc(OC)cc4OC)CC3)cc12 [Example I-683] | < 0.1
15 | CN(C)C(=O)c1cc2cc(C3=CCCN(C(=O)C(Cn4ccnn4)c4cccc(CO)c4)C3)ccc2o1 (stereo not shown) [Example I-833] | 0.1 to 1
16 | COc1ccccc1-c1cc(C2=CCCN(C(=O)CCn3ccnn3)C2)c(F)c2[nH]c(C(=O)N3CCC4CC43)cc12 (stereo not shown) [Example I-1011] | < 0.1
17 | COc1cnccc1-c1cc(C2=CCCN(C(=O)CCn3ccnn3)C2)cc2cc(C(=O)N(C)C)oc12 [Example I-1067] | < 0.1
18 | COc1ccccc1-c1cc(C2=CCCN(C(=O)CCn3ccnn3)C2)c(F)c2[nH]c(C(=O)N3CCN(c4cnn(C)c4C#N)CC3)cc12 [Example I-1005] | < 0.1
19 | COc1ccccc1-c1cc(C2=CCCN(C(=O)CCn3ccnn3)C2)c(F)c2[nH]c(C(=O)N3Cc4cn(-c5ncccc5OC)cc4C3)cc12 [Example I-417] | < 0.1
20 | CN(C)C(=O)c1cc2ccc(C3=CCCN(C(=O)CCc4ccon4)C3)cc2[nH]1 [Example I-831] | 0.1 to 1
21 | (1R)-3-[4-(4-ethyl-3-pyridyl)-7-fluoro-2-[4-(5-fluoro-3-methoxy-2-pyridyl)piperazine-1-carbonyl]-1H-indol-6-yl]cyclohex-3-ene-1-carboxylic acid [Example I-810] | < 0.1

Row | Compound | IC50 [µM]
22 | COc1ccccc1-c1cc(C2=CCCN(C(=O)CCn3ccnn3)C2)c(F)c2[nH]c(C(=O)N3CCN(c4ncccc4C(C)C)CC3)cc12 [Example I-333] | < 0.1
23 | COc1ccccc1-c1cc(C2=CCCN(C(=O)CCn3ccnn3)C2)c(F)c2[nH]c(C(=O)N3CCN(c4cc(F)cc(F)c4OC)CC3)cc12 [Example I-357] | < 0.1
24 | COc1cc(F)cnc1N1CCN(C(=O)c2cc3c(-c4ccc(C5(C#N)CC5)cc4)cc(C4=CCCN(C(=O)CCn5ccnn5)C4)c(F)c3[nH]2)CC1 [Example I-1140] | < 0.1
25 | COc1ccccc1-c1cc(C2=CCCN(C(=O)CCn3ccnn3)C2)c(F)c2[nH]c(C(=O)N3CCN(c4ncccc4OC)CC3)cc12 [Example I-326] | 10 to 100
26 | COc1ccccc1-c1cc(C2=CCCN(C(=O)CCn3ccnn3)C2)c(F)c2[nH]c(C(=O)N3CC=C(C4CC4)CC3)cc12 [Example I-511] | < 0.1
27 | COc1ccccc1-c1cc(C2=CCCN(C(=O)CCn3ccnn3)C2)c(F)c2[nH]c(C(=O)N3CCN(c4ccccc4)CC3)cc12 [Example I-419] | < 0.1
28 | COc1ccccc1-c1cc(C2=CCCN(C(=O)CCn3ccnn3)C2)c(F)c2[nH]c(C(=O)N3CCN(c4ccc5c(c4)Nc4ccccc4CC5)CC3)cc12 [Example I-947] | 1 to 10
29 | COc1cc(F)ccc1-c1cc(C2=CCCN(C(=O)CCn3ccnn3)C2)c(F)c2[nH]c(C(=O)N3CCN(c4ncc(F)cc4OC)CC3)cc12 [Example I-613] | < 0.1
30 | CCc1ccncc1-c1cc(C2=CCC[C@@H](C(=O)O)C2)c(F)c2[nH]c(C(=O)N3CCN(c4ncc(F)cc4OC)CC3)cc12 (single isomer, unassigned) [Example I-810] | > 100
31 | CCc1cc(C)ncc1-c1cc(C2=CCCN(C(=O)CCn3ccnn3)C2)c(F)c2[nH]c(C(=O)N3CCN(c4nccnc4OC)CC3)cc12 [Example I-519] | < 0.1
32 | CCc1cnccc1-c1cc(C2=CCCN(C(C)=O)C2)c(F)c2[nH]c(C(=O)N3Cc4cnn(C)c4C3)cc12 [Example I-705] | 10 to 100
33 | COc1ccccc1-c1cc(C2=CCCN(C(=O)CCn3ccnn3)C2)c(F)c2[nH]c(C(=O)N3CCN(c4ccc5ccccc5c4OC)CC3)cc12 [Example I-956] | 1 to 10
34 | COc1cc(F)cnc1N1CCN(C(=O)c2cc3c(-c4cncc(-c5ccccc5)c4)cc(C4=CCCN(C(=O)CCn5ccnn5)C4)c(F)c3[nH]2)CC1 [Example I-647] | < 0.1
35 | COc1ccccc1-c1cc(C2=CCCN(C(=O)CCn3ccnn3)C2)c(F)c2[nH]c(CN3CCN(c4ncccc4OC)CC3=O)cc12 [Example I-1171] | 0.1 to 1
36 | COc1ccccc1-c1cc(C2=CCCN(C(=O)CCn3ccnn3)C2)c(F)c2[nH]c(C(=O)N3CCN(c4cc5ccccc5cc4OC)CC3)cc12 [Example I-342] | < 0.1
37 | CCOc1cccnc1N1CCN(C(=O)c2cc3c(-c4cnccc4OC)cc(C4=CCCN(C(=O)CCn5ccnn5)C4)c(F)c3[nH]2)CC1 [Example I-564] | < 0.1
38 | COc1cc(F)cnc1N1CCN(C(=O)c2cc3c(-c4cccc5c4OCCCO5)cc(C4=CCCN(C(=O)CCn5ccnn5)C4)c(F)c3[nH]2)CC1 [Example I-678] | < 0.1
39 | COc1cccc(N2CCN(C(=O)c3cc4c(-c5cnc6ccccc6c5OC)cc(C5=CCCN(C(=O)CCn6ccnn6)C5)c(F)c4[nH]3)CC2)n1 [Example I-1038] | 0.1 to 1
40 | COc1ccccc1-c1cc(C2=CCCN(C(=O)CCn3ccnn3)C2)c(F)c2[nH]c(C(=O)N3CCN(c4ncccn4)CC3)cc12 [Example I-863] | < 0.1

Reference: patent US20250214977A1, “STAT6 INHIBITORS AND USES THEREOF” (Kymera Therapeutics, Inc., priority 2024, published 2025)
